How the values were obtained:
human factor XIa = human factor XIa (Homo sapiens (Human), UniProt P03951); assay: Measurement of FXIa inhibition; assay type: biochemical; details: factor XIa from Kordia, substrate Boc-Glu(OBzl)-Ala-Arg-AMC, fluorescence
Method: a.1) Measurement of FXIa Inhibition
(§1) The factor XIa inhibition of the substances according to the invention is determined using a biochemical test system which utilizes the reaction of a peptidic factor XIa substrate to determine the enzymatic activity of human factor XIa. Here, factor XIa cleaves from the peptic factor XIa substrate the C-terminal aminomethylcoumarin (AMC), the fluorescence of which is measured. The determinations are carried out in microtitre plates.
1 μl of the diluted substance solutions is placed into each of the wells of white microtitre plates from Greiner (384 wells). […] After 15 min of incubation, the enzyme reaction is started by addition of 20 μl of the factor XIa substrate Boc-Glu(OBzl)-Ala-Arg-AMC dissolved in assay buffer (10 μM in assay buffer) from Bachem, the mixture is incubated at room temperature (22° C.) for 30 min and fluorescence is then measured (excitation: 360 nm, emission: 460 nm). The measured emissions of the test batches with test substance are compared to those of control batches without test substance (only dimethyl sulphoxide instead of test substance in dimethyl sulphoxide), and IC50 values are calculated from the concentration/activity relationships.

human plasma kallikrein = human plasma kallikrein (Homo sapiens (Human), UniProt P03952); assay: Determination of the plasma kallikrein activity; assay type: biochemical; details: plasma kallikrein from Kordia, substrate H-Pro-Phe-Arg-AMC, fluorescence
Chain of human plasma kallikrein (P03952 391-638): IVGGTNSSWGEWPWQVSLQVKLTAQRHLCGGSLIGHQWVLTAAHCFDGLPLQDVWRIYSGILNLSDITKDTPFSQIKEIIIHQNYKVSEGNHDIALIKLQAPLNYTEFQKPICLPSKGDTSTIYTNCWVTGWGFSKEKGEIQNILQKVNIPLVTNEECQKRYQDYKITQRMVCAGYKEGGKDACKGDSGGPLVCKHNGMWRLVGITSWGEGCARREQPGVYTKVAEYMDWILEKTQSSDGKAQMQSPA
Chain of human plasma kallikrein (P03952 20-390 partner): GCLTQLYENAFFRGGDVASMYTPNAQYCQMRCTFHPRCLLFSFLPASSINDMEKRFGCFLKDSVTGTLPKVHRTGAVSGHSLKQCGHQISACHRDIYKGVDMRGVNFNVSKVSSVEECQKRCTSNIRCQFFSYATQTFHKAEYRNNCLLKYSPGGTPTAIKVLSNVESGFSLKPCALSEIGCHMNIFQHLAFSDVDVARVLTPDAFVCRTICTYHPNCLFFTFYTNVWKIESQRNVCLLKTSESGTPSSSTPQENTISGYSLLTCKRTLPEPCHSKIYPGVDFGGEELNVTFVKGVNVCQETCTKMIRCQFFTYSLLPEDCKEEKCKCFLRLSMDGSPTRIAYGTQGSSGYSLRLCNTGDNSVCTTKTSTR
Method: a.5) Determination of the Plasma Kallikrein Activity
as §1, with “To determine the plasma kallikrein” for “The factor XIa”, “invention,” for “invention is determined using”, “system is used” for “system”, “plasma kallikrein” for “factor XIa”, “plasma kallikrein.” for “factor XIa.”
1 μl of the diluted substance solutions is placed into each of the wells of white microtitre plates from Greiner (384 wells). 20 μl of assay buffer (50 mM Tris/HCl pH 7.4; 100 mM sodium chloride solution; 5 mM of calcium chloride solution; 0.1% of bovine serum albumin) and 20 μl of plasma kallikrein from Kordia (0.6 nM in assay buffer) are then added successively. After 15 min of incubation, the enzyme reaction is started by addition of 20 μl of the substrate H-Pro-Phe-Arg-AMC dissolved in assay buffer (10 μM in assay buffer) from Bachem, the mixture is incubated at room temperature (22° C.) for 30 min and fluorescence is then measured (excitation: 360 nm, emission: 460 nm). The measured emissions of the test batches with test substance are compared to those of control batches without test substance (only dimethyl sulphoxide instead of test substance in dimethyl sulphoxide), and IC50 values are calculated from the concentration/activity relationships.

Chain of human factor XIa (P03951 388-625): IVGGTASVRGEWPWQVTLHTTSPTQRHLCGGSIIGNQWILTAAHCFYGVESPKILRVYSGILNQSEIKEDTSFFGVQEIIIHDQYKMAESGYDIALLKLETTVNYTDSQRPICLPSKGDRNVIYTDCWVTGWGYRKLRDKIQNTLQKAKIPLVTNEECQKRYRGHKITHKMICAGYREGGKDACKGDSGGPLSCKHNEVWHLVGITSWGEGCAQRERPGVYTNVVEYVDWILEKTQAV
Chain of human factor XIa (P03951 19-387 partner): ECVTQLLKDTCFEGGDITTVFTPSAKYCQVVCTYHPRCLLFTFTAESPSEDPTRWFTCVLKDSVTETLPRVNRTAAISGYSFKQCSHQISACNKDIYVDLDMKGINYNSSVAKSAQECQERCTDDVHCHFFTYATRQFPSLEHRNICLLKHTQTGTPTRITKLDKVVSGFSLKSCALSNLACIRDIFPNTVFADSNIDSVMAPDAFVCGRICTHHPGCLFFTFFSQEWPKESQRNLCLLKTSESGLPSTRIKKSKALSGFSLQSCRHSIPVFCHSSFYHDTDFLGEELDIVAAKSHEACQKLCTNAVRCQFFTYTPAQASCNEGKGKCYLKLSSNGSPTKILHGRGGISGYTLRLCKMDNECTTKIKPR

Structure (SMILES) | IC50 (human factor XIa) | IC50 (human plasma kallikrein)
O=C1NC2(CC2)Cc2ccc(Cl)cc2-c2cc(=O)n(C(Cc3ccccc3)C(=O)Nc3ccc4[nH]c(=O)[nH]c4c3)cc21 (stereo not drawn) [Example 29, 2-(11′-Chloro-2′,5′-dioxo-2′,5′,6′,8′-tetrahydro-3′H-spiro[cyclopropane-1,7′-pyrido[3,4-e][3]benzazocine]-3′-yl)-N-(2-oxo-2,3-dihydro-1H-benzimidazol-5-yl)-3-phenylpropanamide] | 4.5 nM | 42 nM
COCCC(C(=O)Nc1ccc(C(=O)O)cc1)n1cc2c(cc1=O)-c1cc(Cl)ccc1CC(CF)NC2=O (stereo not drawn) [Example 33, 4-({2-[11-Chloro-7-(fluoromethyl)-2,5-dioxo-5,6,7,8-tetrahydropyrido[3,4-e][3]benzazocin-3(2H)-yl]-4-methoxybutanoyl}amino)benzoic acid] | 1.2 nM | 97 nM
O=C(Cn1cc2c(cc1=O)-c1cc(Cl)ccc1CCNC2=O)Nc1ccc(C(=O)O)cc1 [Example 4, 4-{[(11-Chloro-2,5-dioxo-5,6,7,8-tetrahydropyrido[3,4-e][3]benzazocin-3(2H)-yl)acetyl]amino}benzoic acid] | 720 nM | 18000 nM
COCCC(C(=O)Nc1ccc(C(=O)O)cc1)n1cc2c(cc1=O)-c1cc(Cl)ccc1CC1(CC1)NC2=O (stereo not drawn) [Example 12, 4-{[2-(11′-Chloro-2′,5′-dioxo-2′,5′,6′,8′-tetrahydro-3′H-spiro[cyclopropane-1,7′-pyrido[3,4-e][3]benzazocine]-3′-yl)-4-methoxybutanoyl]amino}benzoic acid] | 1.9 nM | 390 nM
CCC(C(=O)Nc1ccc(C(=O)O)cc1)n1cc2c(cc1=O)-c1cc(Cl)ccc1CC1(CC1)NC2=O (stereo not drawn) [Example 10, 4-{[2-(11′-Chloro-2′,5′-dioxo-2′,5′,6′,8′-tetrahydro-3′H-spiro[cyclopropane-1,7′-pyrido[3,4-e][3]benzazocine]-3′-yl)butanoyl]amino}benzoic acid] | 7.7 nM | 2100 nM
COCCC(C(=O)Nc1ccc(C(=O)O)nc1)n1cc2c(cc1=O)-c1cc(Cl)ccc1CC1(CC1)NC2=O (stereo not drawn) [Example 20, 5-{[2-(11′-Chloro-2′,5′-dioxo-2′,5′,6′,8′-tetrahydro-3′H-spiro[cyclopropane-1,7′-pyrido[3,4-e][3]benzazocine]-3′-yl)-4-methoxybutanoyl]amino}pyridine-2-carboxylic acid] | 47 nM | 4500 nM
COCCC(C(=O)Nc1cc(C(=O)O)cs1)n1cc2c(cc1=O)-c1cc(Cl)ccc1CC1(CC1)NC2=O (stereo not drawn) [Example 23, 5-{[2-(11′-Chloro-2′,5′-dioxo-2′,5′,6′,8′-tetrahydro-3′H-spiro[cyclopropane-1,7′-pyrido[3,4-e][3]benzazocine]-3′-yl)-4-methoxybutanoyl]amino}thiophene-3-carboxylic acid] | 100 nM | 3900 nM
COCCC(C(=O)Nc1ccc(C(=O)O)s1)n1cc2c(cc1=O)-c1cc(Cl)ccc1CC1(CC1)NC2=O (stereo not drawn) [Example 22, 5-{[2-(11′-Chloro-2′,5′-dioxo-2′,5′,6′,8′-tetrahydro-3′H-spiro[cyclopropane-1,7′-pyrido[3,4-e][3]benzazocine]-3′-yl)-4-methoxybutanoyl]amino}thiophene-2-carboxylic acid] | 4 nM | 340 nM
CC(C)CC(C(=O)Nc1ccc(-c2noc(=O)[nH]2)cc1)n1cc2c(cc1=O)-c1cc(Cl)ccc1CCNC2=O (stereo not drawn) [Example 9, 2-(11-Chloro-2,5-dioxo-5,6,7,8-tetrahydropyrido[3,4-e][3]benzazocin-3(2H)-yl)-4-methyl-N-[4-(5-oxo-4,5-dihydro-1,2,4-oxadiazol-3-yl)phenyl]pentanamide] | 140 nM | 3800 nM
O=C(O)c1ccc(NC(=O)C(Cc2ccccc2)n2cc3c(cc2=O)-c2cc(Cl)ccc2CC2(CC2)NC3=O)cc1 (stereo not drawn) [Example 28, 4-{[2-(11′-Chloro-2′,5′-dioxo-2′,5′,6′,8′-tetrahydro-3′H-spiro[cyclopropane-1,7′-pyrido[3,4-e][3]benzazocine]-3′-yl)-3-phenylpropanoyl]amino}benzoic acid] | 1.8 nM | 55 nM
CCC(C(=O)Nc1ccc(C(=O)O)cc1)n1cc2c(cc1=O)-c1cc(Cl)ccc1CCNC2=O (stereo not drawn) [Example 6, 4-{[2-(11-Chloro-2,5-dioxo-5,6,7,8-tetrahydropyrido[3,4-e][3]benzazocin-3(2H)-yl)butanoyl]amino}benzoic acid] | 28 nM | 1900 nM
COCCC(C(=O)Nc1ccc(C(N)=O)nc1)n1cc2c(cc1=O)-c1cc(Cl)ccc1CC1(CC1)NC2=O (stereo not drawn) [Example 21, 5-{[2-(11′-Chloro-2′,5′-dioxo-2′,5′,6′,8′-tetrahydro-3′H-spiro[cyclopropane-1,7′-pyrido[3,4-e][3]benzazocine]-3′-yl)-4-methoxybutanoyl]amino}pyridine-2-carboxamide] | 34 nM | 910 nM
COCCC(C(=O)Nc1ccc(C(N)=O)c(F)c1)n1cc2c(cc1=O)-c1cc(Cl)ccc1CC1(CC1)NC2=O (stereo not drawn) [Example 13, 4-{[2-(11′-Chloro-2′,5′-dioxo-2′,5′,6′,8′-tetrahydro-3′H-spiro[cyclopropane-1,7′-pyrido[3,4-e][3]benzazocine]-3′-yl)-4-methoxybutanoyl]amino}-2-fluorobenzamide] | 27 nM | 780 nM
O=C(Cn1cc2c(cc1=O)-c1cc(Cl)ccc1CCNC2=O)Nc1ccc(-c2noc(=O)[nH]2)cc1 [Example 5, 2-(11-Chloro-2,5-dioxo-5,6,7,8-tetrahydropyrido[3,4-e][3]benzazocin-3(2H)-yl)-N-[4-(5-oxo-4,5-dihydro-1,2,4-oxadiazol-3-yl)phenyl]acetamide] | 350 nM | 8300 nM
CO[C@H]1CC[C@H](CC(C(=O)Nc2ccc3[nH]c(=O)[nH]c3c2)n2cc3c(cc2=O)-c2cc(Cl)ccc2CC2(CC2)NC3=O)CC1 (stereo partly drawn) [Example 27, 2-(11′-Chloro-2′,5′-dioxo-2′,5′,6′,8′-tetrahydro-3′H-spiro[cyclopropane-1,7′-pyrido[3,4-e][3]benzazocine]-3′-yl)-3-(trans-4-methoxycyclohexyl)-N-(2-oxo-2,3-dihydro-1H-benzimidazol-5-yl)propanamide] | 18 nM | 250 nM
COCCC(C(=O)Nc1ccn2nccc2c1)n1cc2c(cc1=O)-c1cc(Cl)ccc1CC1(CC1)NC2=O (stereo not drawn) [Example 16, 2-(11′-Chloro-2′,5′-dioxo-2′,5′,6′,8′-tetrahydro-3′H-spiro[cyclopropane-1,7′-pyrido[3,4-e][3]benzazocine]-3′-yl)-4-methoxy-N-(pyrazolo[1,5-a]pyridin-5-yl)butanamide] | 11 nM | 210 nM
COCCC(C(=O)Nc1ccc2[nH]ncc2c1)n1cc2c(cc1=O)-c1cc(Cl)ccc1CC1(CC1)NC2=O (stereo not drawn) [Example 18, 2-(11′-Chloro-2′,5′-dioxo-2′,5′,6′,8′-tetrahydro-3′H-spiro[cyclopropane-1,7′-pyrido[3,4-e][3]benzazocine]-3′-yl)-N-(1H-indazol-5-yl)-4-methoxybutanamide] | 21 nM | 330 nM
CCC(C(=O)Nc1ccc(-c2noc(=O)[nH]2)cc1)n1cc2c(cc1=O)-c1cc(Cl)ccc1CC1(CC1)NC2=O (stereo not drawn) [Example 11, 2-(11′-Chloro-2′,5′-dioxo-2′,5′,6′,8′-tetrahydro-3′H-spiro[cyclopropane-1,7′-pyrido[3,4-e][3]benzazocine]-3′-yl)-N-[4-(5-oxo-4,5-dihydro-1,2,4-oxadiazol-3-yl)phenyl]butanamide] | 16 nM | 1700 nM
